Here are results for one compound from patent publication US20050222271A1, “Novel amorphous form of memantine hydrochloride” (priority 2004, published 2005).

A short description of the series: Solubility (complete dissolution) of memantine hydrochloride in solvents. The class given is physicochemical. The procedure:
In particular, memantine hydrochloride is soluble in water, allowing the complete dissolution of memantine hydrochloride at room temperature at a concentration of 50 mg per milliliter (ml). The use of a relatively concentrated solution, e.g. about 50 mg per ml is therefore preferred.
In a first step of the distillation process, memantine hydrochloride is preferably dissolved in an […] solvent; more preferably dissolved in a straight or branched chain C1-C4 alcohol solvent, and most preferably dissolved in methanol or ethanol to form a solution. Memantine hydrochloride is soluble in methanol or ethanol, allowing the complete dissolution of memantine hydrochloride at ambient temperature.
In particular, memantine hydrochloride is soluble in methanol, allowing the complete dissolution of memantine hydrochloride in methanol at ambient temperature with a concentration of 30 mg per milliliter (ml). The use of a relatively concentrated solution, e.g. about 30 mg per ml is therefore preferred for methanol.
In particular, memantine hydrochloride is soluble in ethanol, allowing the complete dissolution of memantine hydrochloride in ethanol at ambient temperature with a concentration of 20 mg per ml. The use of a relatively concentrated solution, e.g. about 20 mg per ml is therefore preferred for ethanol.

On to `CC12CC3CC(C)(C1)CC(N)(C3)C2.Cl` [memantine hydrochloride, 1-amino-3,5-dimethyltricyclo[3,3,1,1^3,7]decane hydrochloride], for which the “solubility in ethanol (complete dissolution with a concentration of)” value (ethanol, ambient temperature) is listed as at least 20 mg per ml. Moreover, the “solubility in methanol (complete dissolution with a concentration of)” value (methanol, ambient temperature) is listed as ≥ 30 mg per milliliter (ml). For the same compound, under “water, room temperature”, the “solubility in water (complete dissolution at a concentration of)” value is recorded as ≥ 50 mg per milliliter (ml).
